Series [1] concerns SK-MEL-S. To be noted: cell-based assay, read-out: translation inhibition (EC50 nM) cell-based assay SK-MEL-S; cited from earlier work.
The next series deals with translation. To be noted: in vitro assay; mean ± standard deviation; read-out: translation inhibition (EC50 nM) in vitro assay; cited from earlier work.
Series [2] concerns SK-MEL-S. To be noted: read-out: cytotoxicity (IC50 nM) SK-MEL-S, CellTiter-Glo, mean ± standard deviation; cited from earlier work.
The subject of series [3] is Hela. To be noted: read-out: cytotoxicity (IC50 nM) Hela, CellTiter-Glo, mean ± standard deviation; cited from earlier work. For orientation: ATP-based viability assays read luminescence as a measure of living cells.
The subject of series [4] is Hela. To be noted: cell-based assay, read-out: translation inhibition (EC50 nM) cell-based assay Hela; cited from earlier work.
The test system of series [5] is IMR-90 human fibroblast cells. The series can be described thus: IMR-90 cytotoxicity assay. The class given is cell-based. To be noted: IMR-90, 72 h, read-out: IC50 (nM) Quiescent IMP-90. The text has this: IMR-90 Cytotoxicity Assay.
To evaluate the effect of compounds of the invention on non-proliferating normal cells, an in vitro cytotoxicity assay developed to distinguish between true antiproliferative activity and general cellular cytotoxicity unrelated to proliferation was used. Rudolph-Owen L A, Salvato K, Cheng C, Wu J, Towle M J and Littlefield B A: A 96-well plate cell-based assay to quantify undesired cytotoxic effects against quiescent non-dividing cells. Proc Amer Assoc Cancer Res 45: 264-265, 2004. In brief, IMR-90 human fibroblast cells, obtained from ATCC, were grown for 4 days to confluency in MEM containing 10% FBS and supplemented with L-glutamine, penicillin/streptomycin. After washing, the medium was replaced with complete MEM containing 0.1% FBS and the cells were cultured for 3 additional days to achieve complete quiescence. A compound of the invention or vehicle control was then added in the continued presence of 0.1% FBS, followed by incubation for 3 days at 37° C. Cell viability was assessed by the measurement of cellular ATPlevels using CellTiter-Glo reagent (Promega).

In another series the test system is H522-T1. The series can be described thus: Cell growth inhibition assay (CellTiter-Glo). The class given is cell-based, human. To be noted: for IC50: Homo sapiens, 96 h, 4 days incubation; for Selectivity vs. IMR-90, H522-T1: ratio IC50[IMR-90]:IC50[tumor cell line]. As to the method:
(§1) Cell Culture and Cell Growth Inhibition Assay.
(§2) The chosen cell lines are all human cancer cell lines except for the 4T1 murine breast cancer line, representing a wide variety of cancer types including breast (MDA-MB-453), kidney (A498), lung (H1975), pancreatic (PANC-1) and endometrial cancer (AN3CA, HEC-1A, and RL95-2), glioblastoma (U251 and U-87MG), melanoma (A2058 and LOXIMVI) and uterine sarcoma (MES-SA). All the cancer cell lines can be obtained from the American Type Culture Collection (ATCC, Manassas, Va., USA) with the exception of U251 which can be provided by the National Cancer Institute Tumor Repository (Frederick, Md.) and is cultured in the standard tissue culture media appropriate for each cell line. All the culture media are supplemented with 10% fetal bovine serum (FBS), 100 I.U./mL penicillin and 100 μg/mL streptomycin. For the cell growth inhibition assay, the cells are seeded in 96-well tissue culture plates at 500-3000 cells/well (seeding density empirically adjusted for each cell line based on growth rate optimization). The cells are allowed to attach for a minimum of 5 h prior to compound administration. The cells are incubated for a period of 4 days after compound addition. Following the incubation period, CellTiter-Glo reagent (Promega, Madison, Wis., USA) is added to all the wells to assess cell proliferation/viability. Luminescence is measured using an Envision microplate reader (Perkin Elmer, Waltham, Mass., USA). The IC50 values were calculated as the concentration which inhibited cell growth to 50% of DMSO control treated cell populations.

A further series deals with HCT-116. In words: Cell growth inhibition assay (CellTiter-Glo). The class given is cell-based, human. To be noted: for IC50: Homo sapiens, 96 h, 4 days incubation; for Selectivity vs. IMR-90, HCT-116: ratio IC50[IMR-90]:IC50[tumor cell line]. As to the method:
as §1, §2

Another series concerns A2058. In words: Cell growth inhibition assay (CellTiter-Glo). It is filed as cell-based, human. To be noted: for IC50: Homo sapiens, 96 h, 4 days incubation; for Selectivity vs. IMR-90, A2058: ratio IC50[IMR-90]:IC50[tumor cell line]. As to the method:
as §1, §2

Series [6] has as its system P388 murine lymphocytic leukemia cell line. To be noted: cited from earlier work.
Another series deals with BXPC-3. To be noted: pancreas BXPC-3; cited from earlier work.
The subject of the next series is MCF-7. To be noted: breast MCF-7; cited from earlier work.
Another series relates to SF-268. To be noted: CNS SF-268; cited from earlier work.
The next series deals with NCI-H460. To be noted: lung NCI-H460; cited from earlier work.
Another series relates to KM20L2. To be noted: colon KM20L2; cited from earlier work.
The test system of a further series is DU-145. To be noted: prostate DU-145; cited from earlier work.

Data on 14 compounds can be found in US9540355B2, “Irciniastatin analogues” (priority 2013, dated 2017).

As a reminder, the EC50 is the midpoint of the concentration-response curve. Broadly, the IC50 is the concentration needed to halve the response being measured. Regarding `C[C@@H]1C[C@@H]([C@H](O)CC2CC(=O)NC(=O)C2)C(=O)[C@@H](C)C1` [cycloheximide], the EC50 in the series with SK-MEL-S [1] is 2670 nM; with translation, 3150 ± 2350 nM; in the series on Hela [4], 3320 ± 434 nM. In addition, the concentration for half-maximal inhibition (IC50) was 3130 ± 764 nM in the series with SK-MEL-S [2] and 2290 ± 1520 nM with Hela [3].

As to `C=C1C[C@](OC)([C@H](O)C(=O)NC2OCO[C@H]3[C@@H]2O[C@H](C[C@H](O)CO)C(C)(C)[C@@H]3OC)O[C@H](C)[C@@H]1C` (stereo partly shown) [compound 8], the EC50 in the series on SK-MEL-S [1] was 64 nM; in the series on translation it was 238 ± 44 nM; with Hela [4], 59 ± 32 nM. In addition, the values for the IC50 with SK-MEL-S [2] and in the series with Hela [3] were 3.79 ± 0.04 nM and 2.52 ± 1.39 nM, respectively.

Take `C=C(C)C[C@H](OC)[C@H](O)C(=O)N[C@@H](OC)[C@@H]1CC(=C)C(C)(C)[C@@H](C[C@H](O)[C@@H](C)[C@H]2Cc3c(C)c(O)cc(O)c3C(=O)O2)O1` [C(11)-Exomethylene-Irciniastatin B]: in series [5], the 50% inhibitory concentration (IC50) was found to be 49 nM. For the same compound, in the series with H522-T1, half-maximal inhibition (IC50) was put at 1.6 nM and the “Selectivity vs. IMR-90, H522-T1” value is listed as 31. Moreover, in the series with HCT-116, the IC50 was 1 nM and the “Selectivity vs. IMR-90, HCT-116” value is given as 49. Besides, in the series on A2058, the IC50 is 0.7 nM and the “Selectivity vs. IMR-90, A2058” value amounted to 70.

For the compound `C=C(C)C[C@H](OC)[C@H](O)C(=O)N[C@@H](OC)[C@@H]1C[C@@H](O)C(C)(C)[C@@H](C[C@H](O)[C@@H](C)C2Cc3c(C)c(O)cc(O)c3C(=O)O2)O1` (stereo partly shown) [1a], the EC50 was 33 ± 10 nM with SK-MEL-S [1], 28 ± 7 nM in the series on translation and 22 ± 1.4 nM in the series on Hela [4]. In addition, the IC50 in the series on SK-MEL-S [2] was 0.27 ± 0.04 nM; in the series on Hela [3] it was 0.64 ± 0.14 nM.

For `C=C(C)C[C@H](OC)[C@H](O)C(=O)N[C@H](OC)[C@@H]1C[C@@H](O)C(C)(C)[C@@H](C[C@H](O)[C@@H](C)C2Cc3c(C)c(O)cc(O)c3C(=O)O2)O1` (stereo partly shown) [compound 4], the EC50 with SK-MEL-S [1] is 843 nM; with translation it was 318 ± 182 nM; with Hela [4], 2200 ± 1410 nM. Also, the results for the IC50 with SK-MEL-S [2] and in the series on Hela [3] were 763 ± 70 nM and greater than 1000 nM, respectively.

Regarding `Cc1c(O)cc(O)c2c1CC([C@H](C)[C@@H](O)C[C@H]1O[C@H](C(N)=O)C[C@@H](O)C1(C)C)OC2=O` (stereo partly shown) [compound 7], the EC50 with SK-MEL-S [1], with translation and with Hela [4] was greater than 10000 nM each time. The IC50 with SK-MEL-S [2] and in the series on Hela [3] was greater than 1000 nM in each case.

In the case of `C=C(C)C[C@H](OC)[C@H](O)C(=O)N[C@@H](OC)[C@@H]1C[C@@H](OC(=O)c2ccccc2)C(C)(C)[C@@H](C[C@H](O)[C@@H](C)[C@H]2Cc3c(C)c(O)cc(O)c3C(=O)O2)O1` [C(11)-Obz-Irciniastatin A, C(11)-OBz-Irciniastatin A], the IC50 in [5] came out at 81 nM. Further, in the series on H522-T1, the IC50 amounted to 5.4 nM and the “Selectivity vs. IMR-90, H522-T1” value came out at 15. For the same compound, in the series on A2058, the IC50 worked out at 2.7 nM and the “Selectivity vs. IMR-90, A2058” value is 30.

In the case of `C=C(C)C[C@H](OC)[C@H](O)C(=O)N[C@@H](OC)[C@@H]1C/C(=N/OC)C(C)(C)[C@@H](C[C@H](O)[C@@H](C)[C@H]2Cc3c(C)c(O)cc(O)c3C(=O)O2)O1` (stereo in doubt) [C(11)-O-Methyloxime-Irciniastatin B], the figures for the IC50 (in series [5]; with H522-T1; in the series on A2058) were 46 nM, 0.8 nM and 0.5 nM, respectively. The “Selectivity vs. IMR-90, H522-T1” value in the series with H522-T1 is reported as 58. In addition, the “Selectivity vs. IMR-90, A2058” value in the series with A2058 came to 92.

Turning to `C=C(C)C[C@H](OC)[C@H](O)C(=O)N[C@@H](OC)[C@@H]1C[C@@H](OC(C)=O)C(C)(C)[C@@H](C[C@H](O)[C@@H](C)[C@H]2Cc3c(C)c(O)cc(O)c3C(=O)O2)O1` [C(11)-OAc-Irciniastatin A], in series [5], the IC50 turned out to be 27 nM. In the series with H522-T1, 0.7 nM corresponded to half-maximal inhibition (IC50) and the “Selectivity vs. IMR-90, H522-T1” value stood at 39. In the series on HCT-116, the half-maximal inhibitory concentration (IC50) came to 2 nM and the “Selectivity vs. IMR-90, HCT-116” value stood at 14. Moreover, in the series on A2058, it took 0.4 nM to reach half-maximal inhibition (IC50) and the “Selectivity vs. IMR-90, A2058” value stood at 68.

On to `C=C(C)C[C@@H](OC)[C@H](O)C(=O)N[C@@H](OC)[C@@H]1C[C@@H](O)C(C)(C)[C@@H](C[C@H](O)[C@@H](C)C2Cc3c(C)c(O)cc(O)c3C(=O)O2)O1` (stereo partly shown) [compound 3], for which the 50% effective concentration (EC50) in the series with SK-MEL-S [1] is 495 nM; with translation, 346 ± 64 nM; in the series on Hela [4], 4950 ± 4870 nM. The IC50 was 352 ± 12.1 nM in the series on SK-MEL-S [2] and 614 ± 267 nM in the series on Hela [3].

On to `C=C(C)C[C@H](OC)[C@H](O)C(=O)N[C@@H](OC)[C@@H]1C[C@@H](O)C(C)(C)[C@@H](C[C@H](O)COC)O1` [compound 5], for which the EC50 was 578 nM in the series with SK-MEL-S [1], 641 ± 262 nM in the series on translation and 1650 ± 1060 nM in the series on Hela [4]. Besides, the IC50 with SK-MEL-S [2] and in the series on Hela [3] was greater than 1000 nM throughout.

For `C=C(C)C[C@H](OC)[C@H](O)C(=O)N[C@@H](OC)[C@@H]1C[C@H](O)C(C)(C)[C@@H](C[C@H](O)[C@@H](C)[C@H]2Cc3c(C)c(O)cc(O)c3C(=O)O2)O1` [epi-C(11)-Irciniastatin A], the IC50 in series [5] worked out at 34 nM; with H522-T1 it was 0.9 nM; in the series on HCT-116 it was 3 nM; in the series on A2058, 0.4 nM. The “Selectivity vs. IMR-90, H522-T1” value in the series with H522-T1 turned out to be 38. Moreover, the “Selectivity vs. IMR-90, HCT-116” value with HCT-116 turned out to be 11. Moreover, in the series on A2058, the “Selectivity vs. IMR-90, A2058” value is reported as 85.

As for `C=C(C)C[C@H](OC)[C@H](O)C(=O)N[C@@H](OC)[C@@H]1CC(=O)C(C)(C)[C@@H](C[C@H](O)[C@@H](C)[C@H]2Cc3c(C)c(O)cc(O)c3C(=O)O2)O1` [Irciniastatin B, (−)-Irciniastatin B], the IC50 amounted to 57 nM in series [5], 0.8 nM in the series on H522-T1, 3 nM in the series on HCT-116 and 0.5 nM with A2058. In addition, the “Growth Inhibition of Cancer Cell Lines (GI50)” value is 6 ng/mL in series [6]; 0.73 ng/mL with BXPC-3; 0.5 ng/mL in the series with MCF-7; 0.66 ng/mL in the series on SF-268; 1.2 ng/mL in the series on NCI-H460; 2.1 ng/mL in the series with KM20L2. For the same compound, in the series with DU-145, the “Growth Inhibition of Cancer Cell Lines (GI50)” value was 1.6 ng/mL. Moreover, the “Selectivity vs. IMR-90, H522-T1” value in the series on H522-T1 is reported as 71. For the same compound, in the series with HCT-116, the “Selectivity vs. IMR-90, HCT-116” value is recorded as 19. In addition, in the series on A2058, the “Selectivity vs. IMR-90, A2058” value is 114.

As to `C=C(C)C[C@H](OC)[C@H](O)C(=O)N[C@H](OC)[C@@H]1C[C@@H](O)C(C)(C)[C@@H](C[C@H](O)COC)O1` [compound 6], the EC50 in the series with SK-MEL-S [1], in the series with translation and in the series with Hela [4] was greater than 10000 nM each time. Also, the IC50 in the series with SK-MEL-S [2] and with Hela [3] was greater than 1000 nM in each case.
